Each structure is given as a SMILES string. A value given as a limit tells only on which side of the number the result lay.

For orientation: IC50 means the point on the concentration scale where inhibition reaches its midpoint. Broadly, the inhibition is the change of the read-out against control, counted positive when it falls.

Assay [1] is described as follows: Antagonistic activity was measured by the inhibition of Gamma-aminobutyric acid type B receptor binding to rat brain synaptosomes. The assay is classed as subcellular.
Assay [2] is filed under the species Cavia porcellus. Kind of assay: Antagonistic activity was measured by the reversal inhibition of EFS stimulated neuronal cholinergic contraction of guinea pig tracheal rings at 300 uM. The assay is classed as functional. The following applies: Trachea.
The species entered for assay [3] is Cavia porcellus. Kind of assay: Antagonistic activity was measured by the reversal inhibition of EFS stimulated neuronal cholinergic contraction of guinea pig tracheal rings. The assay is classed as functional. The following applies: Trachea.

As to `CC1(C)CO[C@@H](CC(=O)O)CN1`, the IC50 in assay [1] amounted to 1.1 µM.

`CC[C@@H]1CO[C@@H](CC(=O)O)CN1`: the inhibition at 300 µM in the assay listed under Cavia porcellus [2] was determined as 95%. The compound also displayed an IC50 in assay [1] of 10 µM. For `CC[C@H]1CO[C@H](CC(=O)O)CN1`, in assay [1], the IC50 was above 100 µM. Still for that read-out and setting: under `CC[C@@H]1CO[C@H](CC(=O)O)CN1` stands above 100 µM. In the case of `CCOC(OCC)P(=O)(O)CCCN`, the inhibition at 300 µM in the assay listed under Cavia porcellus [2] is 50%. In addition, the results for the IC50 (in the assay filed under Cavia porcellus [3]; in assay [1]) were 65 µM and 62 µM, respectively. On to `O=C(O)CC1CNCCO1` (stereo not given), for which the inhibition at 300 µM in the assay listed under Cavia porcellus [2] is 46%. The compound also registered an IC50 in assay [1] above 100 µM. On the same counts, the results for `O=C(O)CC1CNC2(CCCC2)CO1` (racemic) are 97% and 11 µM. With `CC1(C)COC(CC(=O)O)CN1` (racemic), the IC50 in the assay listed under Cavia porcellus [3] is 4.6 µM; in assay [1] it was 3 µM. The compound `O=C(O)CC1CNC2(CC2)CO1` (racemic) returned an IC50 in assay [1] of 37 µM. `CC1COC(CC(=O)O)CN1` (racemic; form 1): the inhibition at 300 µM in the assay filed under Cavia porcellus [2] stood at 76%. The IC50 in assay [1] turned out to be 37 µM. With `CC1(CO)COC(CC(=O)O)CN1` (racemic; form 1), the IC50 in the assay listed under Cavia porcellus [3] was determined as 4.5 µM; in assay [1], 2 µM. For the compound `CCC1(CO)COC(CC(=O)O)CN1` (racemic; form 1), the inhibition at 300 µM in the assay filed under Cavia porcellus [2] turned out to be 99%. Moreover, the IC50 in assay [1] was 19 µM.

`CC1COC(CC(=O)O)CN1` (racemic; form 2): in assay [1], the IC50 came to 9 µM. Still for that read-out and setting: under `CC1(CO)COC(CC(=O)O)CN1` (racemic; form 2) stands 5 µM; under `CCC1(CO)COC(CC(=O)O)CN1` (racemic; form 2), 100 µM. Still for that read-out and setting: the figure for `CC1(C)COC(CC(=O)O)CN1` (stereo in doubt; 24) is above 100 µM.

(Values after ChEMBL document CHEMBL1129107, “Substituted morpholine-2S-acetic acid derivatives: Sch 50911 and related compounds as novel GABAB antagonists” (Bioorg Med Chem Lett, 1996).)
